The test system of series [1] is Plasmodium falciparum. The series can be described thus: Antimalarial activity against schizont stage of chloroquine-susceptible Plasmodium falciparum 3D7 infected in erythrocytes assessed as inhibition of [3H]hypoxanthine incorporation after 48 hrs by scintillation counting analysis. The series is classed as functional, organism-based.
Series [2] deals with Plasmodium falciparum. Briefly: Antimalarial activity against schizont stage of chloroquine-susceptible Plasmodium falciparum 3D7 infected in erythrocytes assessed as inhibition of [3H]hypoxanthine incorporation after 96 hrs by scintillation counting analysis. The series is classed as functional, organism-based.
Series [3] deals with Plasmodium falciparum. The series can be described thus: Antimalarial activity against schizont stage of chloroquine-resistant Plasmodium falciparum W2 infected in erythrocytes assessed as inhibition of [3H]hypoxanthine incorporation after 48 hrs by scintillation counting analysis. The format is functional, organism-based.
Series [4] concerns Plasmodium falciparum. Briefly: Antimalarial activity against schizont stage of chloroquine-resistant Plasmodium falciparum W2 infected in erythrocytes assessed as inhibition of [3H]hypoxanthine incorporation after 96 hrs by scintillation counting analysis. The format is functional, organism-based.
For series [5], the system named is Plasmodium falciparum. The series can be described thus: Antimalarial activity against schizont stage of atovaquone-resistant Plasmodium falciparum Tm90C2b infected in erythrocytes assessed as inhibition of [3H]hypoxanthine incorporation after 48 hrs by scintillation counting analysis. The series is classed as functional, organism-based.
Series [6] relates to Plasmodium falciparum. Briefly: Antimalarial activity against schizont stage of atovaquone-resistant Plasmodium falciparum Tm90C2b infected in erythrocytes assessed as inhibition of [3H]hypoxanthine incorporation after 96 hrs by scintillation counting analysis. The format is functional, organism-based.
The nature of series [7]: Chemical stability of the compound in aqueous phosphate buffer of pH 7.4 assessed as half life at 100 uM by HPLC analysis. The series is classed as physicochemical.
Series [8] can be described thus: Stability of the compound in RPMI medium assessed as half life at 100 uM by HPLC analysis in presence of 10% human serum. The series is classed as physicochemical. The following applies: RPMI medium with 10% human serum.
Series [9] deals with Toxoplasma gondii. Briefly: Antitoxoplasma activity against Toxoplasma gondii RH tachyzoites isolated from human brain assessed as parasite growth inhibition after 24 hrs by hematoxylin-eosin staining based light microscopy. The series is classed as functional, organism-based.
The test system of series [10] is Toxoplasma gondii. Briefly: Antitoxoplasma activity against Toxoplasma gondii RH tachyzoites isolated from human brain assessed as parasite growth inhibition after 48 hrs by hematoxylin-eosin staining based light microscopy. The format is functional, organism-based.
A short description of series [11]: Cytotoxicity against rhesus monkey LLC-MK2 cells assessed as cell viability after 48 hrs by MTS assay. The series is classed as cell-based, Macaca mulatta. The following applies: read-out: LD50.
The nature of series [12]: Cytotoxicity against concanavalin A stimulated BALB/c mouse splenocytes after 72 hrs by alamar blue dye based plate reader analysis. The format is cell-based, Splenocyte. The following applies: read-out: LD50.
For series [13], the system named is Plasmodium falciparum. Briefly: Ratio of ciprofloxacin IC50 to compound IC50 for chloroquine-resistant Plasmodium falciparum W2 infected in erythrocytes after 48 hrs. The format is functional.
For series [14], the system named is Plasmodium falciparum. Briefly: Ratio of ciprofloxacin IC50 to compound IC50 for atovaquone-resistant Plasmodium falciparum Tm90C2b infected in erythrocytes after 48 hrs. The format is functional.
In series [15] the test system is Plasmodium falciparum. Briefly: Ratio of ciprofloxacin IC50 to compound IC50 for chloroquine-susceptible Plasmodium falciparum 3D7 infected in erythrocytes after 48 hrs. The format is functional.
For series [16], the system named is Plasmodium falciparum. The series can be described thus: Ratio of ciprofloxacin IC50 to compound IC50 for chloroquine-resistant Plasmodium falciparum W2 infected in erythrocytes after 96 hrs. The series is classed as functional.
In series [17] the test system is Plasmodium falciparum. Briefly: Ratio of ciprofloxacin IC50 to compound IC50 for atovaquone-resistant Plasmodium falciparum Tm90C2b infected in erythrocytes after 96 hrs. The series is classed as functional.
Series [18] relates to Plasmodium falciparum. Briefly: Ratio of ciprofloxacin IC50 to compound IC50 for chloroquine-susceptible Plasmodium falciparum 3D7 infected in erythrocytes after 96 hrs. The format is functional.
Series [19] is described as follows: Therapeutic index, ratio of LD50 for rhesus monkey LLC-MK2 cells to IC50 for Toxoplasma gondii RH tachyzoites. The series is classed as cell-based. To be noted: read-out: Ratio LD50/IC50.
The nature of series [20]: Therapeutic index, ratio of LD50 for concanavalin A stimulated BALB/c mouse splenocytes to IC50 for chloroquine-susceptible Plasmodium falciparum 3D7 infected in erythrocytes. The series is classed as cell-based. To be noted: read-out: Ratio LD50/IC50.

The IC50 is the point on the concentration scale where inhibition reaches its midpoint. What is called half-life is the time in which the quantity being followed falls by half.

Regarding `CCOC(=O)c1cn(C2CC2)c2cc(N3CCNCC3)c(F)cc2c1=O` [CIPROFLOXACIN ETHYL ESTER], the half-maximal inhibitory concentration (IC50) in the series on Plasmodium falciparum [1] amounted to 2.33 µM; in the series with Plasmodium falciparum [2], 0.89 µM; in the series with Plasmodium falciparum [3], 3.67 µM; in the series on Plasmodium falciparum [4] it was 0.84 µM; with Plasmodium falciparum [5] (read-out: IC50) it was 3.56 µM; in the series on Plasmodium falciparum [6], 2.27 µM. Besides, the concentration for half-maximal inhibition (IC50) in the series with Toxoplasma gondii [9] worked out at 0.96 µM; with Toxoplasma gondii [10] it was 0.42 µM. Further, the half-life at 100 µM in [7] and in series [8] was above 76 h in each case. The CC50 at 48 h in [11] is above 30 µM. The CC50 at 72 h in series [12] was above 40 µM.
With `CCOC(=O)c1cn(C2CC2)c2cc(N3CCN(CCC45CC6CC(CC(C6)C4)C5)CC3)c(F)cc2c1=O`, the half-inhibitory concentration (IC50) is 1 µM with Plasmodium falciparum [1]; 0.41 µM in the series on Plasmodium falciparum [2]; 2.06 µM in the series on Plasmodium falciparum [3]; 0.71 µM with Plasmodium falciparum [4]; 2.46 µM with Plasmodium falciparum [5] (read-out: IC50); 2.23 µM in the series with Plasmodium falciparum [6]. Also, the values for the IC50 with Toxoplasma gondii [9] and in the series with Toxoplasma gondii [10] were 0.92 µM and 0.46 µM, respectively. Also, the Ratio IC50 in the series with Plasmodium falciparum [13] stood at 60; in the series with Plasmodium falciparum [14], 29; with Plasmodium falciparum [15] it was 47; in the series with Plasmodium falciparum [16], 7; in the series with Plasmodium falciparum [17], 7; in the series with Plasmodium falciparum [18], 31. The half-life at 100 µM in series [7] and in [8] was above 76 h each time. In addition, in [11], the CC50 at 48 h is 27.8 µM. Moreover, the CC50 at 72 h in series [12] is above 100 µM. The selectivity ratio in series [19] was above 60; in series [20], above 100.
With `O=C(O)c1cn(C2CC2)c2cc(N3CCNCC3)c(F)cc2c1=O` [CIPROFLOXACIN], the half-inhibitory concentration (IC50) with Plasmodium falciparum [1] was 47 µM; with Plasmodium falciparum [2] it was 12.8 µM; in the series on Plasmodium falciparum [3], 122 µM; in the series with Plasmodium falciparum [4] it was 16.8 µM; in the series on Plasmodium falciparum [5] it was 71.8 µM; in the series with Plasmodium falciparum [6] it was 15.3 µM.
For `C=C[C@H]1CN2CC[C@H]1C[C@H]2[C@H](O)c1ccnc2ccc(OC)cc12` [QUININE], the half-inhibitory concentration (IC50) with Plasmodium falciparum [2] came out at 0.112 µM; in the series with Plasmodium falciparum [3], 0.917 µM; in the series on Plasmodium falciparum [5] (read-out: IC50), 1.07 µM.
For `CCOC(=O)c1cn(C2CC2)c2cc(N3CCN(Cc4ccccc4)CC3)c(F)cc2c1=O`, the half-inhibitory concentration (IC50) came to 1.08 µM with Plasmodium falciparum [1]; 0.32 µM in the series with Plasmodium falciparum [2]; 1.61 µM in the series on Plasmodium falciparum [3]; 0.49 µM with Plasmodium falciparum [4]; 2.56 µM in the series on Plasmodium falciparum [5] (read-out: IC50); 2.35 µM in the series on Plasmodium falciparum [6]. Besides, the IC50 in the series with Toxoplasma gondii [9] came to 1.7 µM; with Toxoplasma gondii [10] it was 1.24 µM. Besides, the half-life at 100 µM in series [7] and in series [8] was above 76 h each time. For the same compound, in series [11], the CC50 at 48 h is above 30 µM. In addition, the CC50 at 72 h in [12] was determined as 57 µM.
`CCc1nc(N)nc(N)c1-c1ccc(Cl)cc1` [PYRIMETHAMINE]: the IC50 is 0.0133 µM in the series on Plasmodium falciparum [1]; 0.0021 µM in the series on Plasmodium falciparum [2]; 0.0104 µM in the series on Plasmodium falciparum [3]; 0.0023 µM in the series with Plasmodium falciparum [4]; 0.0146 µM in the series on Plasmodium falciparum [5] (read-out: IC50); 0.0014 µM in the series with Plasmodium falciparum [6]. In addition, the IC50 is 0.24 µM in the series on Toxoplasma gondii [9] and 0.12 µM with Toxoplasma gondii [10].
With `O=C1C(O)=C([C@H]2CC[C@H](c3ccc(Cl)cc3)CC2)C(=O)c2ccccc21` [ATOVAQUONE], the IC50 with Plasmodium falciparum [1] was 0.0023 µM; in the series on Plasmodium falciparum [2], 0.0019 µM; in the series with Plasmodium falciparum [3], 0.0039 µM; with Plasmodium falciparum [4], 0.002 µM; in the series on Plasmodium falciparum [5] (read-out: IC50), above 10 µM; with Plasmodium falciparum [6] it was 0.388 µM.

These data come from ChEMBL document CHEMBL3217739 (Medchemcomm, 2011).
